Measured values taken from the NIST ThermoML archive (doi:10.1021/je501126j).

Tests used:
[1] = 101 kPa, Liquid, Vibrating tube method
[2] = wn = mass fraction of the nth substance listed; conditions: 101 kPa, Liquid, Vibrating tube method

CC(O)CN(C)C (stereo not drawn) [1-(dimethylamino)-2-propanol]
[1]
Conditions	mass density [kg/m3]
298.15 K	845.2
303.15 K	840.4
308.15 K	835.6
313.15 K	830.7
318.15 K	825.9
323.15 K	820.9

CC(O)CN(C)C (stereo not drawn) [1-(dimethylamino)-2-propanol] + O
mass density [kg/m3], [2]
Conditions	298.15 K	303.15 K	308.15 K	313.15 K	318.15 K	323.15 K
w1 = 0.1	992.5	990.8	988.9	986.7	984.2	982.1
w1 = 0.2	989.5	987.2	984.6	981.9	979	976
w1 = 0.3	984.6	981.4	978	974.5	970.9	967.2
w1 = 0.4	976.7	972.8	968.7	964.6	960.5	956.3
w1 = 0.5	967.2	962.9	958.5	954.1	949.4	944.8
w1 = 0.55	958.7	954.2	949.7	945	940.4	935.6
w1 = 0.6	948.9	944.2	939.6	934.8	930	925.2
w1 = 0.71	929.1	924.3	919.5	914.7	909.8	904.9
w1 = 0.81	905.6	900.9	896	891.1	886.2	881.2
w1 = 0.91	876.5	871.1	866.9	862	857.1	852.1
w1 = 0.96	860.5	855.7	850.8	846	841	836.1
w1 = 1	845.2	840.4	835.6	830.7	825.9	820.9
